Test results reported in patent publication US11932870B2, “Compositions and methods for immune cell modulation in adoptive immunotherapies” (Fate Therapeutics, Inc., priority 2016, dated 2024).

Tests used:
[1] = tested on: CD8 T cells transduced with CAR Construct 1; experiment: Tcm phenotype skewing of CAR-T cells (CD62L, CCR7, CD27 surface expression); assay type: cell-based, human; conditions: flow cytometry day 8
Protocol: (§1) Culturing cells in large-scale for phenotypic and exhaustion marker evaluation. Isolated CD8 T cells were activated in bulk on day 0 using anti-CD3/anti-CD28 beads in T cell media supplemented with IL-2. On day 1, cells were transduced with the CAR Construct and cell density was adjusted to 0.5×10^6/ml and 10^6 cells were seeded into 12-well plates in the presence of vehicle, TWS119, or DCC-2036. On day 4, cells were transferred into 6-well plates and 2 ml of T cell media was added to each well. On day 6 another 2 ml of media was added to each well. On day 8, CAR T cells were analyzed on a flow cytometer for surface expression of phenotypic markers (CD62L, CCR7, and CD27) and exhaustion markers (PD-1 and Tim-3).
To determine the effect of compound treatment on skewing towards a central memory phenotype, isolated CD8 T cells were activated in bulk on day 0 using anti-CD3/anti-CD28 beads in T cell media supplemented with IL-2. On day 1, cells were transduced with the CAR Construct 1 shown in FIG. 2 and cell density was adjusted to 0.5×10^6/ml and 10^6 cells were seeded into 12 well plates in the presence of vehicle (DMSO), TWS119 or DCC-2036 at the same concentrations. On day 4, cells were transferred into 6-well plates and 2 ml of media was added to each well. On day 6 another 2 ml of media was added to each well. On day 8, cells were analyzed on a flow cytometer for cell surface expression of CD27.
The expression of CD27 observed with vehicle treatment was defined as an MFI (mean fluorescence intensity) of 1 and the relative MFI of cells treated with compound was calculated.

[2] = tested on: CD8 CAR-T cells; experiment: Exhaustion marker expression (PD-1, Tim-3) on CD8 CAR-T cells; assay type: cell-based, human
Protocol: as §1
To determine the effect of compound treatment of CAR-T cells on exhaustion marker expression, cells from three different donors were prepared and treated as described in the protocol above. PD-1 and Tim-3 expression was determined using flow cytometry. […] Tim-3 expression was reduced 2-fold with TWS119, and 3.7-fold with DCC-2036 treatment (FIG. 6A).

[3] = tested on: CAR-T cells co-cultured with irradiated K562 tumor cells that express CD19; experiment: In vitro serial killing/re-stimulation assay; assay type: cell-based, human; conditions: relative to vehicle; FIG. 3C
Source text: An informative clinical parameter that can in some contexts be indicative of likelihood of successful adoptive cell therapy in clinical trials is the ability and extent of expansion of the transferred cells in the patient post-treatment and/or persistence and continued function following initial expansion, e.g., in the context of continued exposure to antigen. The ability of engineered T cells to persist and continue expanding over multiple rounds of antigen stimulation can be indicative of such features and/or likelihood of in vivo function or clinical response. An in vitro serial killing/re-stimulation assay, where the T cells treated by each compound were evaluated for various functions, including expansion and ability to kill tumor cells expressing the target antigen in vitro over multiple rounds of exposure to and withdrawal from antigen, was used as a model system. Such assays were carried out on cells treated with or without compounds, to assess the impact of individual compounds on cell function after repeated encounter with antigen, and cell expansion or persistence in such contexts.
CD8 T cells were activated, transduced, and expanded in the presence of DMSO, TWS119, or DCC-2036. At the end of the expansion, the CAR-T cells were cryopreserved. The serial re-stimulation assay was performed by thawing the CAR-T cells and co-culturing with irradiated K562 tumor cells that express CD19, the antigen recognized by the CAR. Prior to starting each round of killing, cell numbers were adjusted so that CAR-T cell numbers were substantially the same from the cultures generated with DMSO, TWS119, and DCC-2036 treatment respectively. An equal number of irradiated CD19-expressing K562 target cells were added to the different CAR-T cultures.

[4] = tested on: Nalm-6-luc tumor cells; experiment: In vivo tumor clearance by compound-treated CD19 CAR-T cells; conditions: NSG mice with Nalm-6-luc; 2.0×10^5 cryopreserved compound-treated CAR-T cells per animal (1:1 CD4:CD8); imaging; FIGS. 7 and 8
Protocol: NSG mice were injected with Nalm-6-luc, a CD19+ human tumor line engineered to express firefly luciferase. CAR-T cells were generated from CD4+ and CD8+ T cells that were separately activated and expanded in vitro. The cells were transduced with the CAR-2 construct (FIG. 2) one day after activation and then replated into 24-well GREX plates with or without the compounds. Half the media was replaced every two days thereafter until harvest one week post-activation. Cells were cryopreserved and then thawed for use. NSG mice were infused with tumor cells followed […] by CAR-T transfer via retroorbital injection. Four days after IV. injection with Nalm-6-luc cells, mice were treated with 2.0×10^5 CAR-T cells per animal (1:1 CD4:CD8). The mice were imaged periodically to determine tumor burden.

## Nc1cccc(-c2cc3c(Oc4cccc(O)c4)ncnc3[nH]2)c1 [TWS119]
[1]; relative to vehicle (DMSO), FIG. 4A
  increase in the frequency of CAR-T cells expressing both CD62L and CCR7: 1.7 fold
[1]; relative to vehicle (MFI defined as 1), FIG. 4B
  increase in the expression of the differentiation marker CD27 (relative MFI): did not have an effect
[2]; CD8 T cells at one week post activation, relative to DMSO, FIG. 6A
  expression of T cell exhaustion marker Tim-3: reduced expression
[2]; CD8 T cells at one week post activation, relative to DMSO, FIG. 6B
  expression of T cell exhaustion marker PD-1: reduced expression
[2]; relative to vehicle, three donors, FIG. 6A
  reduction of Tim-3 expression: 2 fold
[2]; relative to vehicle, three donors, FIG. 6B
  decrease in PD-1 surface expression: 3.3 fold
[3]
  cell number expansion of CAR-T cells in rounds 3 and 4 of the serial re-stimulation assay: modest increase in expansion relative to vehicle
[4]
  tumor burden / tumor control: minimal tumor control
